Source: the Deep4Chem optical property database
“And” between values parts separate entries of the source, which are not always exact repeats. Equal entries are not always repeated.

Test: solvent given as SMILES

## CCC[Si](CCC)(CCC)c1cc2ccc3cccc4ccc(c1C(=O)NC(C)(C)C)c2c34
In ClC(Cl)Cl
  emission maximum: 383 nm

## COc1cc(C=C(C#Cc2ccccc2)C#Cc2ccccc2)c(OC)cc1C=C(C#Cc1ccccc1)C#Cc1ccccc1
In ClC(Cl)Cl
  emission maximum: 522 nm

## c1ccc2cc(-n3cnc4ccccc43)ccc2c1
In C1CCCCC1
  emission maximum: 374 nm
In C1CCOC1
  emission maximum: 374 nm
In CC#N
  emission maximum: 376 nm
In CCO
  emission maximum: 376 nm
In CCOC(C)=O
  emission maximum: 375 nm
In CCOCC
  emission maximum: 376 nm
In CO
  emission maximum: 377 nm
In Cc1ccccc1
  emission maximum: 374 nm
In ClC(Cl)Cl
  emission maximum: 375 nm

## Cc1cc(-c2ccc(C(C)(C)C)cc2)cc(C)[o+]1
In CC#N
  emission maximum: 430 nm
In ClCCl
  emission maximum: 417 nm

## c1ccc(-n2c3ccccc3c3cc(-n4ccc5cc(-c6ccc7c(c6)C(c6ccccc6)(c6ccccc6)c6ccccc6-7)ccc54)ccc32)cc1
In ClCCl
  emission maximum: 378 nm

## CCOC(=O)C1(O)c2cc3ccc4cccc5ccc(c2C(=O)N1C(C)(C)C)c3c45 (configuration not stated)
In ClC(Cl)Cl
  emission maximum: 387 nm

## CN(C)c1ccc(/C=C2\CCCC2=O)cc1
In CC#N
  emission maximum: 488 nm
In CC(C)=O
  emission maximum: 474 nm
In CC(C)O
  emission maximum: 472 nm
In CCCCCC
  emission maximum: 405 nm
In CCCCO
  emission maximum: 479 nm
In CCCO
  emission maximum: 479 nm
In CCO
  emission maximum: 480 nm
In CCOC(C)=O
  emission maximum: 448 nm
In CCOCC
  emission maximum: 420 nm
In CN(C)C=O
  emission maximum: 504 nm
In CO
  emission maximum: 488 nm
In CS(C)=O
  emission maximum: 493 nm
In Cc1ccccc1
  emission maximum: 424 nm
In ClC(Cl)(Cl)Cl
  emission maximum: 431 nm
In ClC(Cl)Cl
  emission maximum: 469 nm
In ClCCl
  emission maximum: 472 nm
In S=C=S
  emission maximum: 422 nm
In c1ccccc1
  emission maximum: 435 nm
In c1ccncc1
  emission maximum: 480 nm

## COc1ccccc1C1=[N+]2C(=C(c3ccc(I)cc3)c3ccc(-c4ccccc4OC)n3[B-]2(F)F)C=C1
In ClC(Cl)Cl
  emission maximum: 598 nm and 597 nm

## COC(=O)c1c(-c2cc3ccccc3oc2=O)nn(-c2ccc(Br)cc2)c1C(=O)OC
In ClCCl
  emission maximum: 401 nm

## CCCCN1C(=O)C2=C(c3ccc(Br)cc3)NC(=O)C2=C1c1ccc(Br)cc1
In ClCCl
  emission maximum: 531 nm

## C(#Cc1cc(C#Cc2ccccc2)c(C#Cc2ccccc2)c(C#Cc2ccccc2)c1C#Cc1ccccc1)c1ccccc1
In ClCCl
  emission maximum: 424 nm

## CN(C)c1ccc2nc(-c3ccccc3)c(=O)oc2c1
In c1ccccc1
  emission maximum: 500 nm

## CCOC(=O)c1ccccc1-c1c2ccc(=O)cc-2oc2cc(OC(=O)[C@H](CO[Si](C)(C)C(C)(C)C)NC(=O)OC(C)(C)C)ccc12
In C1CCOC1
  emission maximum: 512 nm
In CC#N
  emission maximum: 542 nm
In CCO
  emission maximum: 525 nm
In CS(C)=O
  emission maximum: 547 nm

## c1cc2c3c(c1)-c1cccc4cccc(c14)B3c1cccc3cccc-2c13
In Cc1ccccc1
  emission maximum: 491 nm

## CC(C)(C)c1ccc(-c2sc3c(-c4ccc(C(C)(C)C)cc4)c4n(c3c2-c2ccc(C(C)(C)C)cc2)[B-](F)(F)[N+]2=Cc3c(-c5ccc(C(C)(C)C)cc5)c5sc(-c6ccc(C(C)(C)C)cc6)c(-c6ccc(C(C)(C)C)cc6)c5n3[B-](F)(F)[N+]2=C4)cc1
In CC#N
  emission maximum: 627 nm
In CCCCCC
  emission maximum: 626 nm
In CN(C)C=O
  emission maximum: 636 nm
In Cc1ccccc1
  emission maximum: 632 nm
In ClCCl
  emission maximum: 631 nm

## O=C(O)CCCCCn1/c(=C/C=C/C2=[N+](CCCCCC(=O)O)c3cccc4cccc2c34)c2cccc3cccc1c32
In CO
  emission maximum: 773 nm

## CN(C)c1ccc(/C=C/c2nc(/C=C/c3ccc(N(C)C)cc3)c3ccccc3n2)cc1
In C1CCCCC1
  emission maximum: 503 nm
In C1CCOC1
  emission maximum: 540 nm
In CC#N
  emission maximum: 570 nm
In CS(C)=O
  emission maximum: 580 nm
In ClCCl
  emission maximum: 545 nm

## Cc1ccccc1C1CC(=O)Oc2c1c1nc3ccccc3nc1c1ccccc21 (configuration not stated)
In ClC(Cl)Cl
  emission maximum: 434 nm

## Cc1sc(Cl)cc1-c1nc(-c2ccccc2)[nH]c1-c1cc(Cl)sc1C
In CC#N
  emission maximum: 381 nm

## CCOC(=O)/C=C/C1=[N+]2C(=C(c3c(C)cc(C)cc3C)c3ccc(/C=C/C(=O)OCC)n3[B-]2(F)F)C=C1
In ClCCl
  emission maximum: 602 nm

## COC(=O)c1ccc(C(=O)NC(C)(C)C)c2c1ccc1c3ccccc3c3ccccc3c12
In ClCCl
  emission maximum: 448 nm

## CCOC(=O)COc1ccc(/C=C/C2=C3c4ccccc4C(c4[nH]c(C)cc4C)=[N+]3[B-](F)(F)n3c(/C=C/c4ccc(OCC(=O)OCC)cc4)cc(C)c32)cc1
In C1CCOC1
  emission maximum: 730 nm
In CC#N
  emission maximum: 727 nm
In CCCCCC
  emission maximum: 731 nm
In CO
  emission maximum: 726 nm
In Cc1ccccc1
  emission maximum: 735 nm
In ClCCl
  emission maximum: 733 nm

## C[C@]12SC(=O)C=C1c1nc(-c3ccccc3O)[nH]c1C1=CC(=O)S[C@@]12C
In CC#N
  emission maximum: 407 nm

## CN(C)c1ccc(-c2nc(-c3ccccc3)n3ccccc23)cc1
In ClC(Cl)Cl
  emission maximum: 524 nm

## c1cc2c3c(cccc3c1)-c1c-2c2c3ccccc3c3ccc4c5c6c(c7c8ccccc8c8ccc9c%10c%11c(c%12c%13ccccc%13c%13ccc%14c1c1c2c3c4c2c1c1c%14c%13c%12c%10c1c1c9c8c7c5c21)-c1cccc2cccc-%11c12)-c1cccc2cccc-6c12
In C1CCOC1
  emission maximum: 594 nm

## N#Cc1ccc2nc3[nH]c(=O)[nH]c(=O)c3nc2c1
In ClCCCl
  emission maximum: 420 nm

## CC(=O)Nc1ccc2ccc3cccc4ccc1c2c34
In CC#N
  emission maximum: 386 nm
In CCCCOCCCC
  emission maximum: 385 nm
In CO
  emission maximum: 383 nm

## CN1C(=CC2=C([O-])C(=Cc3oc4ccccc4[n+]3C)C2=O)C(C)(C)c2ccccc21
In ClC(Cl)Cl
  emission maximum: 619 nm

## CC1(C)c2cc(-n3c4ccccc4c4ccccc43)ccc2N(c2ccc(-c3cc(-c4ccccc4)nc(-c4ccccc4)n3)cc2)c2ccc(-n3c4ccccc4c4ccccc43)cc21
In Cc1ccccc1
  emission maximum: 494.44 nm

## CCCCCCCCCCCCOc1cc2c3c(ccc4c5c(SCCCCCCCCCCCC)cc6c7c(ccc(c1c34)c75)C(=O)N(C1CCCCC1)C6=O)C(=O)N(C1CCCCC1)C2=O
In ClC(Cl)Cl
  emission maximum: 640 nm

## F[B-]1(F)n2c(c3c(c2-c2ccccc2)C2C=CC3CC2)C(c2ccccc2)=C2C3=C(C(c4ccccc4)=[N+]21)C1C=CC3CC1 (configuration not stated)
In ClCCl
  emission maximum: 588 nm

## CCN(CC)c1ccc2cc(C#N)/c(=N\C(=O)c3ccco3)oc2c1
In CCO
  emission maximum: 470 nm
In ClCCl
  emission maximum: 460 nm

## CCCCCCc1ccc(-n2c3[n+](c4c5ccccc5c5ccccc5c42)[B-](C)(C)c2ccccc2-3)cc1
In C1CCOC1
  emission maximum: 384 nm
In CC#N
  emission maximum: 385 nm
In Cc1ccccc1
  emission maximum: 385 nm
In ClCCl
  emission maximum: 385 nm

## COc1ccc(-c2c3ccc([nH]3)c3nc(c(-c4ccc(C#N)cc4)c4ccc([nH]4)c4ccc([nH]4)c(-c4ccc(OC)cc4)c4ccc2o4)C=C3)cc1
In C1CCOC1
  emission maximum: 736 nm
In Cc1ccccc1
  emission maximum: 724 nm
In c1ccccc1
  emission maximum: 724 nm

## C[n+]1ccc(-c2cc[n+](C)cc2)cc1
In CC#N
  emission maximum: 353 nm

## Cc1cccc(C2=Cc3c4ccccc4c4ccccc4[n+]3[B-](F)(F)O2)c1
In ClC(Cl)Cl
  emission maximum: 447 nm

## CCCCCCCCCCCCn1cccc1/C=C/c1ccc(/C=C/c2cccn2CCCCCCCCCCCC)cc1
In Cc1ccccc1
  emission maximum: 443 nm

## CC(=O)c1cc(=O)n(C)c2cc(-c3ccc(N(C)C)cc3)sc12
In CC#N
  emission maximum: 504 nm
In ClCCl
  emission maximum: 610 nm

## Clc1ccc(N2c3sc4ccccc4c3Sc3c2sc2ccccc32)cc1
In ClCCl
  emission maximum: 546 nm

## CC(C)[Si]1(C(C)C)c2cc(C#N)ccc2-c2ccc(N(c3ccccc3)c3ccccc3)cc21
In C1CCCCC1
  emission maximum: 413 nm
In CC#N
  emission maximum: 500 nm
In CCO
  emission maximum: 482 nm
In CCOCC
  emission maximum: 436 nm
In CS(C)=O
  emission maximum: 500 nm
In ClCCl
  emission maximum: 470 nm
In c1ccccc1
  emission maximum: 432 nm

## Cc1cc(C2=Cc3cccc[n+]3[B-](F)(F)O2)ccc1N(C)C
In ClC(Cl)Cl
  emission maximum: 491 nm

## COc1cc2c3c4c(c5ccc(C(C)(C)C)cc5c5c(OC)c(OC)c(OC)c(c2c(OC)c1OC)c45)=[N+]1C3=Nc2c3c4cc(OC)c(OC)c(OC)c4c4c(OC)c(OC)c(OC)c5c6cc(C(C)(C)C)ccc6c(c3c54)n2[B-]1(F)F
In Cc1ccccc1
  emission maximum: 873 nm

## c1ccc2c(c1)-c1ccccc1C21c2ccccc2-c2ccncc21
In CC1CCCO1
  emission maximum: 348 nm

## CC1=CC(C)=[N+]2C1=C(C1=C(C)C3=C(C)c4c(C)cc(C)n4[B-](F)(F)[N+]3=C1C)c1c(C)cc(C)n1[B-]2(F)F
In ClC(Cl)Cl
  emission maximum: 527 nm

## CN(C)c1cc(C#N)c(N(C)C)c(C#N)c1
In C1CCCCC1
  emission maximum: 495.79 nm
In C1CCOC1
  emission maximum: 518.13 nm
In C1COCCO1
  emission maximum: 521.65 nm
In CC1COC(=O)O1
  emission maximum: 532.48 nm
In CC#N
  emission maximum: 529.94 nm
In CC(C)=O
  emission maximum: 524.93 nm
In CC(C)OC(C)C
  emission maximum: 503.02 nm
In CCC#N
  emission maximum: 525.76 nm
In CCC(C)C
  emission maximum: 493.58 nm
In CCCCCC
  emission maximum: 493.83 nm
In CCCCCCCCO
  emission maximum: 523.29 nm
In CCCCCOCCCCC
  emission maximum: 505.82 nm
In CCCCOC(C)=O
  emission maximum: 516.8 nm
In CCCCOCCCC
  emission maximum: 502.26 nm
In CCCOCCC
  emission maximum: 507.61 nm
In CCO
  emission maximum: 528.26 nm
In CCOC(C)=O
  emission maximum: 519.21 nm
In CCOCC
  emission maximum: 507.36 nm
In CN(C)C=O
  emission maximum: 533.9 nm
In CO
  emission maximum: 530.5 nm
In CS(C)=O
  emission maximum: 538.21 nm
In Cc1ccccc1
  emission maximum: 516.8 nm
In ClCCCl
  emission maximum: 523.56 nm
In ClCCl
  emission maximum: 522.74 nm
In N#Cc1ccccc1
  emission maximum: 529.1 nm
In O
  emission maximum: 555.25 nm
In OCC(O)CO
  emission maximum: 547.35 nm
In c1ccccc1
  emission maximum: 519.48 nm

## CC1=C2C=CC(C)=[N+]2[B-](F)(F)n2cccc21
In CCCCCC
  emission maximum: 504 nm
In CO
  emission maximum: 502 nm
In ClCCl
  emission maximum: 506 nm

## CC(=O)O[B-]1(OC(C)=O)OC(/C=C/c2ccc(C)cc2)=CC(/C=C/c2ccc(C)cc2)=[O+]1
In C1CCOC1
  emission maximum: 484 nm
In CC#N
  emission maximum: 493 nm
In CC(C)=O
  emission maximum: 489 nm
In CS(C)=O
  emission maximum: 499 nm
In Cc1ccccc1
  emission maximum: 481 nm
In ClC(Cl)Cl
  emission maximum: 491 nm
In ClCCl
  emission maximum: 492 nm

## Clc1ccc(/C=C/c2ccncn2)cc1
In ClCCl
  emission maximum: 411 nm

## COc1ccc(N(c2ccc(OC)cc2)c2ccc(-c3ccc4nc5ccccc5c(=O)n4c3)cc2)cc1
In ClCCl
  emission maximum: 538 nm
